{"source": "patent US8933071B2", "about": "“Dimethyl fasudil for inducing polyploidization of megakaryocytes and for treating blood and bone marrow diseases and disorders” (Northwestern University, priority 2008, dated 2015)", "key": {"[1]": {"test_system": "6133/MPL megakaryocytic leukemia cells", "experiment": "6133/MPL transplant model of AMKL, pre-treatment of cells", "format": "in vivo, C57B1/6 mice", "from_the_text": "FIG. 9 illustrates that DMF blocks the development of AMKL in vivo. a) Histology of spleens from control and 6133/MPL transplanted mice at 20 days. b) Survival analysis of the effect of DMF pre-treatment on AMKL development in recipient mice. p<0.0005 (Log rank test). N=6 mice (vehicle (DMSO) pre-treatment) or N=7 (DMF pre-treatment) per group.\nTo determine whether polyploidization-inducing agents can serve as new therapies for AMKL, we established an AMKL animal model. We developed an animal model of AMKL by transplanting 6133/MPL megakaryocytic leukemia cells (35) into sub-lethally irradiated recipient C57B1/6 mice. The parental 6133 cell line, which is dependent upon TPO for survival, was derived from a leukemic mouse that expressed the AMKL t(1:22) fusion protein OTT-MAL by knock-in gene targeting. 6133 cells were then transduced with a MPLW515L expressing retrovirus, and stable TPO-independent clones were isolated. We discovered that C57B1/6 mice transplanted with 1 million 6133/MPL cells developed a fulminant AMKL within 21 days. The disease was characterized by massive infiltration of CD41+ cells in the bone marrow and spleen. These mice will be utilized as animal models to quantify the effect of small molecule inducers of polyploidization on disease progression in vivo.\nTo determine whether polyploidization-inducing agents can serve as new therapies for AMKL, DMF was assessed in an animal model for AMKL. To this end, an animal model of AMKL was developed by transplanting 6133/MPL megakaryocytic leukemia cells into sub-lethally irradiated recipient C57B1/6 mice. The parental 6133 cell line, which is dependent upon TPO for survival, was derived from a leukemic mouse that expressed the AMKL t(1:22) fusion protein OTT-MAL by knock-in gene targeting (35). […]\nC57BL/6 mice (purchased from the Jackson Laboratory, Bar Harbor, Me.) were sub-lethally irradiated with 600 rads. […] Development of disease was assessed with presence of GFP-positive cells in the peripheral blood by FACS and by monitoring the health and body weight of the animals. […]"}, "GIME cells [2]": {"test_system": "GIME cells", "experiment": "Polyploidization of GIME cells (DNA content by flow cytometry)", "format": "cell-based", "conditions": "GIME cells, 48 hours, DAPI, flow cytometry", "experimental": "(§1) (A) Y10, (B) GIME, and (C) CMK cells were grown in the presence of TPO, SU6656, or vehicle (DMSO) for 72 hours. DNA content was measured by flow cytometry. The percentages of cells that reach a DNA content of ≧8N are boxed in A and C, those equal to 8N are boxed in B. D) CMK cells were grown as in (C), and cell numbers were enumerated at 0, 24, 48 and 72 h.\n(§2) DNA content was then assessed by flow cytometry. Numbers above the bar indicate % of cells ≧8N. b) After 48 hours, GIME cells from a) were stained with anti-CD42 antibodies and the cell surface expression of CD42 was evaluated by flow cytometry.\n(§3) To study how megakaryocytes switch from a proliferative to endomitotic cell cycle, the Src kinase inhibitor SU6656 is being utilized."}, "CMK cells": {"test_system": "CMK cells", "experiment": "Polyploidization of CMK cells (DNA content)", "format": "cell-based, human", "conditions": "CMK cells", "experimental": "as §1, §3\nIn collaboration with the Broad Institute, a high throughput screen for small molecules was conducted to identify small molecules that preferentially induce polyploidization or differentiation of megakaryocytes. We screened 10,000 compounds from the Broad's extensive collection of small molecules (including known bioactives, kinase and HDAC inhibitors, and natural products) to identify inducers of megakaryocyte polyploidization. […] 6) Data were analyzed using both MetaXpress software and “Cell Profiler,” software designed at MIT and the Broad Institute. […]"}, "GIME cells [3]": {"test_system": "GIME cells", "format": "cell-based", "conditions": "10 μM, 48 hours, DMSO 0.3%", "experimental": "as §2\nIn collaboration with the Broad Institute, a high throughput screen for small molecules was conducted to identify small molecules that preferentially induce polyploidization or differentiation of megakaryocytes. We screened 10,000 compounds from the Broad's extensive collection of small molecules (including known bioactives, kinase and HDAC inhibitors, and natural products) to identify inducers of megakaryocyte polyploidization. The screen was performed in the following manner: 1) 4,000 CMK (human megakaryocytic leukemia) cells were plated into each well of a 384-well plate, 2) 100 n1 of compounds (yielding a final concentration of 10 μM) were pinned into the wells, 3) plates were incubated at 37° C. for 72 hours, 4) cells were fixed and stained with Hoescht, and 5) plates were imaged using an ImageXpressMICRO high content imager with 20× objective. Nine images per well were collected. 6) Data were analyzed using both MetaXpress software and “Cell Profiler,” software designed at MIT and the Broad Institute. Seventy-two plates containing duplicates of nearly 10,000 small molecules were screened."}}, "note": "“Also recorded” adds a separate entry of the source.", "data": [{"substance": "dimethylfasudil [DMF]", "values": [{"measurement": "development/progression of AMKL in recipient mice", "setting": "[1]; 6133/MPL cells pre-treated with 5 μM for 24 hours before transplant", "result": "interfered with their ability to cause a tumor; also recorded: striking and significant delay in progression of AMKL"}, {"measurement": "time mice healthy with no signs of disease", "setting": "[1]; all mice implanted with cells pre-treated with 5 μM for 24 hours", "result": "at least 200 days"}, {"measurement": "survival analysis p (Log rank test)", "setting": "[1]; pre-treatment vs vehicle (DMSO) pre-treatment", "result": "< 0.0005"}, {"measurement": "induction of polyploidization", "setting": "GIME cells [2]", "result": "potent inducers"}, {"measurement": "induction of polyploidization", "setting": "GIME cells [2]; listed as Rho-kinase inhibitor", "result": "potent inducer of polyploidization"}, {"measurement": "induction of polyploidization", "setting": "CMK cells", "result": "potent inducer of polyploidization"}, {"measurement": "expression of the late megakaryocyte marker CD42", "setting": "GIME cells [3]", "result": 66.3, "unit": "%"}]}]}
